Reference: PMC9147192, “Small Molecule Arranged Thermal Proximity Coaggregation (smarTPCA)—A Novel Approach to Characterize Protein–Protein Interactions in Living Cells by Similar Isothermal Dose–Responses” (International Journal of Molecular Sciences, 2022)

Key:
Assay in all cases: TPP-CCR in living HL-60 cells
Format in all cases: cell-based
GANAB = molecular target: T1, GANAB (Homo sapiens, UniProt Q14697)
T1 construct: endogenous in cells; host or cells: HL-60 (ATCC CCL-240)
T1 sequence (Q14697 29-944): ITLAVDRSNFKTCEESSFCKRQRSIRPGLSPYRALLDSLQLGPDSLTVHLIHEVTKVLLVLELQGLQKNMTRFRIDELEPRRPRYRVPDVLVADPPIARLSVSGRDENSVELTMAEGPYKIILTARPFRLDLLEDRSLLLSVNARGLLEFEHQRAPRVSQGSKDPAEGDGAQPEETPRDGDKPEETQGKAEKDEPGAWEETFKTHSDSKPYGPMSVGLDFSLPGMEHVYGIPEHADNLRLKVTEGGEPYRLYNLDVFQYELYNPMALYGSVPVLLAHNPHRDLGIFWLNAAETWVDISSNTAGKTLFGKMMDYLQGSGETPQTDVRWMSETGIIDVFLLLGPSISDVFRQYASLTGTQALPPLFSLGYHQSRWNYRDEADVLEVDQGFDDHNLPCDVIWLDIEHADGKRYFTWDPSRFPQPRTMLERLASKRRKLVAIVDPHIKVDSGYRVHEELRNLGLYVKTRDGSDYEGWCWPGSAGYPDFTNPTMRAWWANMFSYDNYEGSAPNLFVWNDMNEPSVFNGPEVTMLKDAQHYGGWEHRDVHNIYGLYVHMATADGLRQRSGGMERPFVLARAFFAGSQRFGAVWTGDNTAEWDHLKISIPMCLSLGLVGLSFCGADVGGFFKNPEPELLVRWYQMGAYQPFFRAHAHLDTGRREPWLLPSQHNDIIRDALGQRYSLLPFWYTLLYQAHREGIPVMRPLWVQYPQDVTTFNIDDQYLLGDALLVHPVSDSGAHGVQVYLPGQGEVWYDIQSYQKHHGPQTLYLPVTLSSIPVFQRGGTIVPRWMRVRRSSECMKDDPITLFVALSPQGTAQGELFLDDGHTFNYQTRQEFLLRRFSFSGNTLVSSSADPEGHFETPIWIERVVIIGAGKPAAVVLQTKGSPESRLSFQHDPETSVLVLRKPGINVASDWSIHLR

ENDOG = molecular target: T2, ENDOG (Homo sapiens, UniProt Q14249)
T2 construct: endogenous in cells; host or cells: HL-60 (ATCC CCL-240)
T2 sequence (Q14249 49-297): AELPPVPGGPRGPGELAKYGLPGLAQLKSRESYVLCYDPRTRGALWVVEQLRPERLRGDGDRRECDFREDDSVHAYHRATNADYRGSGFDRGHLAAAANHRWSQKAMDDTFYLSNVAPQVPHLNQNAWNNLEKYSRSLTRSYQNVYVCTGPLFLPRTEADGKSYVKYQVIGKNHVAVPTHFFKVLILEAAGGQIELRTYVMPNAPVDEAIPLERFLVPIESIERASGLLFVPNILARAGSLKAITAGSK

MIA3 = molecular target: T3, MIA3 (Homo sapiens, UniProt Q5JRA6)
T3 construct: endogenous in cells; host or cells: HL-60 (ATCC CCL-240)

[1] = living HL-60 cells, […] °C, TMT-MS

T3 sequence (Q5JRA6 23-1907): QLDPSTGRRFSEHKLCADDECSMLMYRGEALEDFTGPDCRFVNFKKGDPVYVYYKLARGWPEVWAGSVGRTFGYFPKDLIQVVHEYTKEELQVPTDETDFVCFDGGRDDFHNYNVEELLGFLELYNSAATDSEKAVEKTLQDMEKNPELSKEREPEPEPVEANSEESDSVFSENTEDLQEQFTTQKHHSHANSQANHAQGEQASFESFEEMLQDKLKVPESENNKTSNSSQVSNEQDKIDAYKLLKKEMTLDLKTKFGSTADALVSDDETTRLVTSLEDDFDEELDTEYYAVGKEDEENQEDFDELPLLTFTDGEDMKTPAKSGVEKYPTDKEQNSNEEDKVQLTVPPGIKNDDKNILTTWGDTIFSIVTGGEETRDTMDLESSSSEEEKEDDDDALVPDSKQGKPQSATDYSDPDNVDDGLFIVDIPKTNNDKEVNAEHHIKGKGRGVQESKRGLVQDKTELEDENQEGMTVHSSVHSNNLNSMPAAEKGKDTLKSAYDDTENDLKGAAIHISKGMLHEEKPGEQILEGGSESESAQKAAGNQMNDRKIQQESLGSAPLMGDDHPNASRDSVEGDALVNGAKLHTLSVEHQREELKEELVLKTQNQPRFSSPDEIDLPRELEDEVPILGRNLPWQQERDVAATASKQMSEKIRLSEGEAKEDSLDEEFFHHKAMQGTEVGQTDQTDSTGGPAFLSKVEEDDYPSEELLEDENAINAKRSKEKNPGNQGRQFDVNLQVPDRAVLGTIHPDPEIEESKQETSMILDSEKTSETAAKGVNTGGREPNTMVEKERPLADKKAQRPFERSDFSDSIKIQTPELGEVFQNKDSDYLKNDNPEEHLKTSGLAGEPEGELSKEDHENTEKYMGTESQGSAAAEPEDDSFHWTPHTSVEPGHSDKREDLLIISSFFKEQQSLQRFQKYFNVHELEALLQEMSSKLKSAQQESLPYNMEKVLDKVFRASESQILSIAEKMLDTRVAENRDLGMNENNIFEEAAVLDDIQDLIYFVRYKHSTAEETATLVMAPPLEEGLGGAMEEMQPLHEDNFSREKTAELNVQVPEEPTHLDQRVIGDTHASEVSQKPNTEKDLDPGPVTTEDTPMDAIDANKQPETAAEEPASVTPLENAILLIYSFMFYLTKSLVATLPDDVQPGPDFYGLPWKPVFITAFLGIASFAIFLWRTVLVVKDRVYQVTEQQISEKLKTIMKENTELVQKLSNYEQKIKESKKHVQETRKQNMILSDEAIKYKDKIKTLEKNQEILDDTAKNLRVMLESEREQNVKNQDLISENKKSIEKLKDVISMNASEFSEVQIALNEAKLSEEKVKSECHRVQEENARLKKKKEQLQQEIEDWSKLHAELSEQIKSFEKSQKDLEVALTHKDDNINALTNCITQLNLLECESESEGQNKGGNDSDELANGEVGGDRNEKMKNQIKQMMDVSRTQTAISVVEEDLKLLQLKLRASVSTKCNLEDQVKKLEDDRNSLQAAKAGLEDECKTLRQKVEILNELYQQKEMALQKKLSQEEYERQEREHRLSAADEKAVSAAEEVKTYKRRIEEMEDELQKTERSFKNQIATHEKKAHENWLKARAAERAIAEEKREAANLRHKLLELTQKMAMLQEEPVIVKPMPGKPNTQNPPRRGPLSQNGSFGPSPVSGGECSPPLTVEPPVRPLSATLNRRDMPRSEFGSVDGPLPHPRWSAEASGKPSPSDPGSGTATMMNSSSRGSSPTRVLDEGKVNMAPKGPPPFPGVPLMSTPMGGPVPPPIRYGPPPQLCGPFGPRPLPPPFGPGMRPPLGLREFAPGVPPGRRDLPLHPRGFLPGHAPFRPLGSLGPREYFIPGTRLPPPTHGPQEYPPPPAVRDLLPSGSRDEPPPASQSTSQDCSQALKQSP

## Cc1cnc(Nc2ccc(F)cc2Cl)nc1-c1c[nH]c(C(=O)N[C@H](CO)c2cccc(Cl)c2)c1 [ERK 11e]
GANAB; TPP-CCR, living cells, GANAB
  Hill slope: 1.81
GANAB; [1]
  Hill slope (GANAB): 1.81
GANAB; living HL-60 cells, […] °C, TMT-MS, read-out: pEC50 (GANAB) (converted)
  EC50: 5.25 µM
ENDOG; TPP-CCR, living cells, ENDOG
  Hill slope: 0.40
ENDOG; [1]
  Hill slope (ENDOG): 0.40
ENDOG; living HL-60 cells, […] °C, TMT-MS, read-out: pEC50 (ENDOG) (converted)
  EC50: 0.00275 µM
MIA3; TPP-CCR, living cells, MIA3
  Hill slope: 0.98
MIA3; [1]
  Hill slope (MIA3): 0.98
MIA3; living HL-60 cells, […] °C, TMT-MS, read-out: pEC50 (MIA3) (converted)
  EC50: 3.39 µM
